PMC11674305, “Inhibition of Neural Crest Cell Migration by Strobilurin Fungicides and Other Mitochondrial Toxicants” (Cells, 2024)

Experiments:
[1] = test system: complex I (cI); test: Electron transport chain complex activity in permeabilized NCC (Seahorse); type: cell-based, human; conditions: 60 μM, due to block of cIII
Source text: (§1) Magel et al. (2024): Inhibition of neural crest cells migration by strobilurin fungicides
(§2) Figure S9. Inhibition of electron transport chain complexes by picoxystrobin in neural crest […]
(§3) NCC were exposed to the BMC10(V) of the cMINC assay (60 μ M). The grey area indicates th e non-significant range of the assay (≤ 25% change). The effect on complex IV (cIV) was non-significant (green bar). The purple bar indicates complex III (cIII) inhibition. Yellow bars […]
(§4) that for these assays, the electrons have to pass cIII to reach cIV (oxygen consumption), i.e. electrons from cI (or cII) cannot be used for the reduction of oxygen, as they need to flow through cIII (which is blocked). The pattern of inhibition is indicative of cIII as illustrated earlier (Delp et al., 2019; van der Stel et al., 2020).
(§5) To investigate the inhibition pattern of picoxystrobin, NCC were permeabilized and complex-specific substrates and inhibitors were sequentially injected as described earlier (Delp et al., 2019). In detail, cells were permeabilized with MAS buffer (220 mM mannitol, 1 mM ADP, 70 mM sucrose, 10 mM KH2PO4, 5 mM MgCl2, 2 mM HEPES, 1 mM EGTA, 4 mg/ml fatty acid-free BSA, pH = 7.2) supplemented with 25 μ g/mL digitonin. Seahorse measurements were started directly afterwards, and basal OCRs were assessed for internal normalization. Then picoxystrobin was injected and cI activity was assessed. For this, cII was inhibited (5 mM malonat) and substrates for cI (2 mM […], 2.5 mM malic acid, 5 mM pyruvic acid) […]
(§6) were added. […] Next, cI was […]
(§7) inhibited (0.5 μ M rotenone) and substrates of cIII (250 μM duroquinol ) were added. At this step, cIII inhibition data for cIII were obtained. In the case of a cI inhibition (e.g. by rotenone), […]
(§8) To assess cII activity, cI was inhibited and the substrate of cII (10 mM succinic acid) was added.
(§9) Lastly, to assess cIV activity, cII was inhibited and the substrates of cIV (125 μ M TMPD, 2 mM ascorbic acid) were added. Data were compared to the solvent control. Details and assay validation have been provided earlier (Delp et al., 2019; van der Stel et al., 2020). […]

[2] = test system: complex II (cII); test: as above; type: cell-based, human; conditions: 60 μM, due to block of cIII
Source text: as §1, §2, §3, §4, §5, §6, §7, §8, §9

[3] = test system: complex IV (cIV); test: as above; type: cell-based, human; conditions: 60 μM (BMC10(V) of cMINC)
Source text: as §1, §2, §3, §4, §5, §6, §7, §8, §9

[4] = Estimate of maximal tolerable/acceptable exposure; design: species or system human; conditions: per day; LOEL with safety factor of 100, same as ADI of FAO/WHO 2012 report
Experimental: An estimate of the maximal external exposure was obtained as the next step of the study. We used two different approaches, based on (i) setting the acceptable daily intake as the upper limit and (ii) referring to the no-observed-effect level (NOEL) in an animal study (detailed in Figure 7A). We concluded from both approaches that a plausible upper daily tolerated threshold is 0.09 mg/kg. This value was used in a physiologically based kinetic (PBK) model to obtain concentration time data for different tissues in mothers and their fetus. Assuming a repeated daily exposure, the maximal maternal plasma concentrations were predicted to be in the 200–300 nM range. The maximal steady-state fetal brain concentrations were predicted to be in the 100 nM range (5th and 95th percentiles for exposure in the population of 100 subjects were 60–190 nM) (Figure 7B). […] Next, we used some advanced assays to obtain a better understanding of the potency range of picoxystrobin when used in different experimental setups. […]
Figure 7 Comparison of internal exposure estimates and primary effect potency. […] Data are expressed as means ± SEM from three independent biological experiments. ^# LOEL of animal study is based on a 90-day dog study (REF: https://www.fao.org/3/i3111e/i3111e.pdf (accessed on 15 June 2024)). *^,§ There is also an old (no longer valid) value by EFSA of 0.043 mg/kg/day from the year 2004 [71]. […]

CO/C=C(/C(=O)OC)c1ccccc1COc1cccc(C(F)(F)F)n1 [Picoxystrobin, picoxystrobin]
effect on complex I (cI) [1]: apparent inhibition | effect on complex II (cII) [2]: apparent inhibition | effect on complex IV (cIV) [3]: non- | upper daily tolerated threshold / estimate of max. exposure [tolerable/acceptable] [4]: 0.09 mg/kg
